Measured values as given in paper PMC5412012, “HS1BP3 negatively regulates autophagy by modulation of phosphatidic acid levels” (Nature Communications, 2016).

Experiments:
[1] = target: T1, HS1BP3 (full length, GST-tagged) (Homo sapiens, UniProt Q53T59); assay: liposome floatation (Nycodenz), Coomassie gel; format: binding; settings: 5 uM GST-tagged protein, 2 mM total lipid, 20 mM Hepes pH 7.4, 150 mM NaCl, 1 mM MgCl2, 25 °C; PA in liposomes
T1 construct: full length, N-terminal PX domain plus unstructured C terminus; GST-tagged (floatation) or MBP-tagged (lipid strips), expressed in Escherichia coli
T1 sequence (Q53T59 1-392): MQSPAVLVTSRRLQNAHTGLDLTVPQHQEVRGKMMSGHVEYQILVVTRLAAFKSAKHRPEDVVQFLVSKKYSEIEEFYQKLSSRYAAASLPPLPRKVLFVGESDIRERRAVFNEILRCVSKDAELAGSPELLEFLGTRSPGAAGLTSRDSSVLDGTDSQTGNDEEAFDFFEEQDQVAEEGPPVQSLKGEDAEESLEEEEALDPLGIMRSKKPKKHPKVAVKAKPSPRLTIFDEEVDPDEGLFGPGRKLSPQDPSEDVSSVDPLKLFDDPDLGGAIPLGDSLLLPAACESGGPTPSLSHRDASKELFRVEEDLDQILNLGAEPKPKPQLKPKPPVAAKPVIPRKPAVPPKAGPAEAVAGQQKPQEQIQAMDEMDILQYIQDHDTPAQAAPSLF

[2] = target: T2, HS1BP3-PX (PX domain, GST-tagged) (Homo sapiens, UniProt Q53T59); assay: liposome floatation (Nycodenz), Coomassie gel; format: binding; settings: 5 uM GST-tagged protein, 2 mM total lipid, 20 mM Hepes pH 7.4, 150 mM NaCl, 1 mM MgCl2, 25 °C; PA in liposomes
T2 construct: N-terminal PX domain only, lacks C-terminal part; by primers starts at Met1 (MQSPAVL) and ends ...EFLGTRS; GST- or MBP-tagged, expressed in Escherichia coli
T2 sequence (Q53T59 1-139): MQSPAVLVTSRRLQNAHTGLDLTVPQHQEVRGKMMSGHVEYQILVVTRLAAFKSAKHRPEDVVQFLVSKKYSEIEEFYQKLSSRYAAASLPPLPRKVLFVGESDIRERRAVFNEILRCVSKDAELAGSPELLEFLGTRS

CCCCCCCC/C=C\CCCCCCCC(=O)OC[C@H](COP(=O)(O)O)OC(=O)CCCCCCC/C=C\CCCCCCCC [dioleyoyl-phosphatidic acid]
liposome floatation (Nycodenz), Coomassie gel [1]: binding of both HS1BP3 and the PX domain to PA increase with increasing concentrations
liposome floatation (Nycodenz), Coomassie gel [2]: binding of both HS1BP3 and the PX domain to PA increase with increasing concentrations
